Reference: patent EP0318138A1, “Use of inorganic fluorides and nitrogen heterocyclics for enhancement of fluoride uptake in teeth” (SHISEIDO COMPANY LIMITED, priority 1987, dated 1989)

What was measured:
[1] = Experiment 1: inhibition of decalcification (dissolved calcium from treated powder in acetate buffer); conditions: acetate buffer 37°C 60 minutes
Protocol: (§1) Sodium fluoride and the heterocyclic compounds or the fatty acid ester (for comparison) listed in Tables 1 to 3 were added to an distilled water in the amounts shown in Tables 1 to 3, and the pH of the solution was adjusted to 4.5 with dilute hydrochloride or sodium hydroxide to form several preparations. Synthetic hydroxyapatite powder was incubated in each of the preparations at 37°C for 5 minutes and in a calcifying solution at 37°C for 60 minutes, and then filtrated and dried. The fluorine concentration in the treated synthetic hydroxyapatite powder was determined by microdiffusion analysis, and the amount of dissolved calcium after incubating the treated powder in an acetate buffer at 37°C for 60 minutes was measured. The inhibition (%) of decalcification was then calculated by the following equation, to evaluate the acid resistance thereof. [drawing 3]

[2] = Experiment 2: decalcification in acidic gelatin gel observed by microradiography; design: species or system bovine; conditions: 4W in acidic gelatin gel
Protocol: (§2) A fluoride compound, and pyridoxine hydrochloride, 3-pyridylcarbinol or thiamine hydrochloride were added to distilled water, in amounts shown in table 4 to produce preparations. A bovine tooth (which had been ground to remove 200 µm of the surface and expose the enamel surface) was incubated in each preparation at 37°C for 5 minutes and in a calcifying solution at 37°C for 60 minutes, and then washed with tap water and dried. The fluorine concentration in the enamel of the fluoride-treated bovine tooth was determined by enamel biopsy. […] Considerable decalcification. x ... No inhibition of decalcification.

[3] = Experiment 2: fluorine concentration in enamel of treated tooth by enamel biopsy; design: species or system bovine
Protocol: as §2

[4] = Experiment 1: fluorine concentration in treated synthetic hydroxyapatite powder (microdiffusion analysis); conditions: pH 4.5, 37°C 5 minutes, then calcifying solution 60 minutes
Protocol: as §1

[F-].[Na+] [Sodium fluoride]
Inhibition of decalcification (%) ([1]; Sodium fluoride 0.2 %, pyridoxine hydrochloride 0 %, pH 4.5): 40.9%
Inhibition of decalcification (%) ([1]; Table 2, preparations pH 4.5): 40.9%
Inhibition of decalcification (%) ([1]; Table 3, preparations pH 4.5): 40.9%
Inhibition of decalcification [2]: ○
F conc. in enamel ([3]; 1st Etch): 498 ppm
F conc. in enamel ([3]; 2nd etch): 309 ppm
F conc. in enamel ([3]; 3rd etch): 222 ppm
F conc. in enamel ([3]; 4th etch): 178 ppm
F conc. in enamel ([3]; 5th etch): 139 ppm
Fluorine concentration (ppm) ([4]; Sodium fluoride 0.2 %, pyridoxine hydrochloride 0 %): 4910 ppm
Fluorine concentration (ppm) ([4]; Table 2, preparations in distilled water): 4910 ppm
Fluorine concentration (ppm) ([4]; Table 3, preparations in distilled water): 4796 ppm
